Source: patent publication US7816088B2, “Identification, isolation and elimination of cancer stem cells” (The Board of Trustees of the Leland Stanford Junior …, priority 2003, dated 2010)
“Also recorded” adds a separate entry of the source. Where a name gives a salt, the structure may show the parent alone.

Experiments:
β-catenin = β-catenin FACS analysis of CML patient progenitors; type: in vivo, human; settings: CML patients pre versus post-imatinib
Excerpt: β-catenin FACS Analysis. FACS-separated hematopoietic stem cells, common myeloid progenitors, granulocyte/macrophage progenitors, and megakaryocyte/erythroid progenitors were fixed with 0.8% paraformaldehyde and made permeable with 0.3% saponin. Cells were stained overnight with a fluorescein isothiocyanate (FITC)-conjugated antibody to β-catenin (Transduction Laboratories) or IgG1 isotype control-FITC antibody, washed, and analyzed by FACS.

[1] = system: CD34+Lin− stem and progenitor cells; assay: FACS analysis of hematopoietic stem and progenitor profiles of CML patient samples before and after imatinib; type: in vivo, human
Excerpt: Bone Marrow and Peripheral Blood Samples. Fresh human bone marrow was obtained with informed consent from healthy volunteers (AllCells, Berkeley, Calif.) as well as from allogeneic bone marrow donors (Department of Bone Marrow Transplantation, Stanford School of Medicine, Stanford, Calif.). Cytokine (G-CSF) mobilized peripheral blood samples were also obtained following apheresis from allogeneic donors.
Hematopoietic Stem Cell and Myeloid Progenitor Flow Cytometric Analysis and Cell Sorting. Mononuclear fractions were extracted following Ficoll density centrifugation according to standard methods and analyzed fresh or subsequent to rapid thawing of samples previously frozen in 90% FCS and 10% DMSO in liquid nitrogen. Prior to FACS analysis and sorting, hematopoietic stem cells (HSCs) were stained with lineage marker specific phycoerythrin (PE)-Cy5-conjugated antibodies including CD2 RPA-2.10; CD11b, ICRF44; CD20, 2H7; CD56, B159; GPA, GA-R2 (Becton Dickinson-PharMingen, San Diego), CD3, S4.1; CD4, S3.5; CD7, CD7-6B7; CD8, 3B5; CD10, 5-1B4, CD14, TUK4; CD19, SJ25-C1 (Caltag, South San Francisco, Calif.) and APC-conjugated anti-CD34, 84G12 (Becton Dickinson-Pharmingen), biotinylated anti-CD38, HIT2 (Caltag), FITC-conjugated anti-CD90 and PE conjugated anti-Flk2. […]
Myeloid progenitors were stained with the same lineage marker specific PE-Cy5-conjugated antibodies, APC-conjugated anti-CD34, 8G12 (Becton Dickinson-PharMingen) and biotinylated anti-CD38, HIT2 (Caltag) in addition to PE-conjugated anti-IL-3Rα, 9F5 (Becton Dickinson-ParMingen) and FITC-conjugated anti-CD45RA, MEM56 (Caltag) followed by staining with Streptavidin-Texas Red to visualize CD38-BIO stained cells and resuspension in propidium iodide to exclude dead cells. Unstained samples and isotype controls were included to assess background fluorescence. After staining, cells were analyzed and sorted using a modified FACS Vantage (Becton Dickinson Immunocytometry Systems, Mountain View, Calif.) equipped with a 599 nm dye laser and a 488 nm argon laser. […]

Cc1ccc(NC(=O)c2ccc(CN3CCN(C)CC3)cc2)cc1Nc1nccc(-c2cccnc2)n1 [imatinib, imatinib mesylate]
β-catenin levels (MFI) in myeloid progenitors (β-catenin): normal | number of CD34+Lin− cells ([1]; CML patients post-imatinib / responding to imatinib, bone marrow and peripheral blood): dramatic decline; also recorded: significant decrease | number of CD34+CD38− and CD34+CD38+ cells ([1]; imatinib responsive patients): decreased | proportion of individual myeloid progenitors ([1]; imatinib responsive patients): reverted to normal
